From paper PMC5363571 (Oncotarget, 2016) come the findings set out here.

Where a name gives a salt, the structure may show the parent alone.

For this assay, the target named is USP7 (Homo sapiens, UniProt Q93009). Description: biochemical. To be noted: read-out: % Inhibition at 50 μM. On the set-up: Ub-AMC hydrolysis by recombinant USP7 (20 nM), 30 min pre-incubation, fluorescence read-out.
Chain of USP7 (Q93009 whole entry): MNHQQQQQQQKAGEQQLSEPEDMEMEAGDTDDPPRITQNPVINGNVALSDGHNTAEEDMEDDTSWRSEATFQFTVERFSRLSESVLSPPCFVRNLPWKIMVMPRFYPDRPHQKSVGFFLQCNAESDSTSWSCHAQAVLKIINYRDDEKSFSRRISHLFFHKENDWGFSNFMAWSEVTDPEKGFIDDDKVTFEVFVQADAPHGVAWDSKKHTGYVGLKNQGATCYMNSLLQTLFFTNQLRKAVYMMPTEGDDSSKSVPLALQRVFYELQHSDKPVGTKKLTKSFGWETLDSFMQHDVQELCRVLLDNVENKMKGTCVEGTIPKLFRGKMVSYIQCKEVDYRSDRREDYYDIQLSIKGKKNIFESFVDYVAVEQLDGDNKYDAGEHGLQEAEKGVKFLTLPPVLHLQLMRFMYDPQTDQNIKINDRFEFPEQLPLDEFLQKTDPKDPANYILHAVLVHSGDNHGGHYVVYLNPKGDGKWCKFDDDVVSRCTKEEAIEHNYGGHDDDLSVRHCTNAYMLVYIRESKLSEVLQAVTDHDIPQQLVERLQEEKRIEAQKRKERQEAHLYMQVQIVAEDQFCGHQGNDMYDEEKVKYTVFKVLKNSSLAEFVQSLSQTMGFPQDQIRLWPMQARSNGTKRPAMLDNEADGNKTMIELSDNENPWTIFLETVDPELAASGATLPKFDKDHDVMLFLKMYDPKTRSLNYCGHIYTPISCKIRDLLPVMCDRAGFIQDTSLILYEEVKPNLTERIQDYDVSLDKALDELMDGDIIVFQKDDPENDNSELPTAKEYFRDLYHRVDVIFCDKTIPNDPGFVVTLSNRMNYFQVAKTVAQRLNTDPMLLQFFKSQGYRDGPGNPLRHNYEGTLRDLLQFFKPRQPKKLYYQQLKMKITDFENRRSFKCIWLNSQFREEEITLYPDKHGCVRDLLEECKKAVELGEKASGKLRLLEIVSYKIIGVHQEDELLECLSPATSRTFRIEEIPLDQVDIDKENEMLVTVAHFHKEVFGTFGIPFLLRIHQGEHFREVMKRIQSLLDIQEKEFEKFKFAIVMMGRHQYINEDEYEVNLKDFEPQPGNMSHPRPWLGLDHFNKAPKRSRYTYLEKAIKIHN
By inhibition is commonly meant the percentage by which the read-out fell short of the control. Turning to `CCC(C)n1ncn(-c2ccc(N3CCN(c4ccc(OC[C@H]5CO[C@](Cn6cncn6)(c6ccc(Cl)cc6Cl)O5)cc4)CC3)cc2)c1=O` (mixture of isomers) [Itraconazole], the inhibition at 50 µM was below 5%.
To `CCCCC(C)(O)C/C=C/[C@H]1[C@H](O)CC(=O)[C@@H]1CCCCCCC(=O)OC` (mixture of isomers) [Misoprostol] belongs below 5%; to `CC(C)NCC(O)c1ccc(O)c(O)c1` (racemic) [Isoproterenol HCl (rac)], below 5%.
In the case of `N[C@@H]1C[C@H]1c1ccccc1` (racemic) [Tranylcypromine] it was below 5%; in that of `Nc1ccn([C@H]2CC[C@@H](CO)O2)c(=O)n1` [2',3' - dideoxycytidine], below 5%.
To `Cc1cn([C@H]2C[C@H](N=[N+]=[N-])[C@@H](CO)O2)c(=O)[nH]c1=O` [3'-azido-3'-deoxythymidine] belongs below 5%.
As for `O=C(O)COC(=O)Cc1ccccc1Nc1c(Cl)cccc1Cl` [Aceclofenac], the inhibition at 50 µM is below 5%.
Turning to `COc1ccc2c(c1)c(CC(=O)OCC(=O)O)c(C)n2C(=O)c1ccc(Cl)cc1` [Acemetacin], the inhibition at 50 µM came to 19.8%.
To `CC(=O)OCC[N+](C)(C)C` [Acetylcholine Cl] belongs below 5%; to `CC(=O)Oc1ccccc1C(=O)O` [Acetylsalicylic acid], below 5%.
In the case of `Cc1cnc(C(=O)O)c[n+]1[O-]` [Acipimox] it was below 5%.
For `Nc1nc2c(ncn2COCCO)c(=O)[nH]1` [Acycloguanosine], the inhibition at 50 µM was below 5%.
In the case of `NCCCC(O)(P(=O)(O)O)P(=O)(O)O` [Alendronate] it was below 5%.
Consider `Oc1ncnc2[nH]ncc12` [Allopurinol], for which the inhibition at 50 µM is below 5%.
In the case of `C=CCc1ccccc1OCC(O)CNC(C)C` (stereo not drawn) [Alprenolol HCl] it was below 5%; in that of `CCCCC[C@H](O)/C=C/[C@H]1[C@H](O)CC(=O)[C@@H]1CCCCCCC(=O)O` [Alprostadil], below 5%; in that of `NC12CC3CC(CC(C3)C1)C2` [Amantadine HCl], below 5%.
To `Nc1c(Br)cc(Br)cc1CN[C@H]1CC[C@H](O)CC1` [Ambroxol] belongs below 5%.
In the case of `CC(NC(C)(C)C)C(=O)c1cccc(Cl)c1` (stereo not drawn) [Amfebutamone] it was below 5%; in that of `Cn1c(=O)c2[nH]cnc2n(C)c1=O` [Aminophylline], below 5%.
In the case of `CCCCc1oc2ccccc2c1C(=O)c1cc(I)c(OCCN(CC)CC)c(I)c1` [Amiodarone], the inhibition at 50 µM is below 5%.
In the case of `CCN1CCCC1CNC(=O)c1cc(S(=O)(=O)CC)c(N)cc1OC` (stereo not drawn) [Amisulpride], the inhibition at 50 µM is below 5%.
Take `CCC(C)(C)c1ccc(CC(C)CN2C[C@@H](C)O[C@@H](C)C2)cc1` (stereo partly drawn) [Amorolfine]: the inhibition at 50 µM is below 5%.
With `Clc1ccc2c(c1)C(N1CCNCC1)=Nc1ccccc1O2` [Amoxapine], the inhibition at 50 µM was 16.8%.
With `CC(C)CN(C[C@@H](O)[C@H](Cc1ccccc1)NC(=O)O[C@H]1CCOC1)S(=O)(=O)c1ccc(N)cc1` [Amprenavir], the inhibition at 50 µM is below 5%.
To `Nc1cc(-c2ccncc2)c[nH]c1=O` [Amrinone] belongs below 5%; to `O=C1CN2Cc3c(ccc(Cl)c3Cl)N=C2N1` [Anagrelide], 8.4%.
In the case of `COc1ccc(C(=O)N2CCCC2=O)cc1` [Aniracetam] it was below 5%; in that of `CN1CCc2cccc3c2[C@H]1Cc1ccc(O)c(O)c1-3` [Apomorphine r (-)], below 5%.
In the case of `C[C@@H](O[C@H]1OCCN(Cc2n[nH]c(=O)[nH]2)[C@H]1c1ccc(F)cc1)c1cc(C(F)(F)F)cc(C(F)(F)F)c1` [Aprepitant] it was below 5%; in that of `CC1CNc2c(cccc2S(=O)(=O)N[C@@H](CCCNC(=N)N)C(=O)N2CC[C@@H](C)C[C@@H]2C(=O)O)C1` (stereo partly drawn) [Argatroban], below 5%.
For the molecule `O=C1CCc2ccc(OCCCCN3CCN(c4cccc(Cl)c4Cl)CC3)cc2N1` [Aripiprazole], the inhibition at 50 µM was below 5%.
As for `C[C@H]1[C@H](OC(=O)CCC(=O)O)O[C@@H]2O[C@@]3(C)CC[C@H]4[C@H](C)CC[C@@H]1[C@@]24OO3` [Artesunate], the inhibition at 50 µM is below 5%.
To `C[C@H]1[C@H](C)CC[C@]2(C(=O)O)CC[C@]3(C)C(=CC[C@@H]4[C@@]5(C)C[C@@H](O)[C@H](O)[C@@](C)(CO)[C@@H]5CC[C@]43C)[C@H]12` [Asiatic acid] belongs below 5%.
As to `CN1[C@@H]2CC[C@H]1C[C@@H](OC(=O)C(CO)c1ccccc1)C2` (stereo partly drawn) [Atropine sulfate], the inhibition at 50 µM was below 5%.
With `CC1(C)CC[C@]2(C(=O)O)CC[C@]3(C)C(=CC[C@@H]4[C@@]5(C)C[C@H](O)[C@H](O)[C@@](C)(CO)[C@@H]5CC[C@]43C)[C@@H]2C1` [Bayogenin], the inhibition at 50 µM is below 5%.
In the case of `CN(C)CCCOc1nn(Cc2ccccc2)c2ccccc12` [Benzydamine] it was below 5%; in that of `CC(C)COCC(CN(Cc1ccccc1)c1ccccc1)N1CCCC1` (stereo not drawn) [Bepridil], below 5%.
To `C=C(C)[C@@H]1CC[C@]2(C(=O)O)CC[C@]3(C)[C@H](CC[C@@H]4[C@@]5(C)CC[C@H](O)C(C)(C)[C@@H]5CC[C@]43C)[C@@H]12` [Betulinic acid] belongs 25.8%; to `CC(C)(Oc1ccc(CCNC(=O)c2ccc(Cl)cc2)cc1)C(=O)O` [Bezafibrate], below 5%.
In the case of `COc1ccccc1Oc1c(NS(=O)(=O)c2ccc(C(C)(C)C)cc2)nc(-c2ncccn2)nc1OCCO` [Bosentan] it was below 5%.
On to `CC(C)(C)[C@]1(O)CCN2C[C@H]3c4ccccc4CCc4cccc(c43)[C@@H]2C1` [Butaclamol (+)], for which the inhibition at 50 µM was below 5%.
To `CN(Cc1ccc(C(C)(C)C)cc1)Cc1cccc2ccccc12` [Butenafine] belongs 24.9%; to `Clc1ccc(CCC(Cn2ccnc2)Sc2c(Cl)cccc2Cl)cc1` (stereo not drawn) [Butoconazole nitrate], below 5%; to `CC[C@@]1(O)C(=O)OCc2c1cc1n(c2=O)Cc2cc3ccccc3nc2-1` [Camptothecin], below 5%.
In the case of `CCOc1nc2cccc(C(=O)O)c2n1Cc1ccc(-c2ccccc2-c2nnn[nH]2)cc1` [Candesartan], the inhibition at 50 µM is below 5%.
In the case of `CC1=C(/C=C/C(C)=C/C=C/C(C)=C/C=C/C=C(C)/C=C/C=C(C)/C=C/C2=C(C)C(=O)CCC2(C)C)C(C)(C)CCC1=O` [Canthaxanthin] it was below 5%; in that of `CCCCCOC(=O)Nc1nc(=O)n([C@@H]2O[C@H](C)[C@@H](O)[C@H]2O)cc1F` [Capecitabine], below 5%; in that of `C[C@H](CS)C(=O)N1CCC[C@H]1C(=O)O` [Captopril], below 5%.
To `C[C@@](Cc1ccc(O)c(O)c1)(NN)C(=O)O` [Carbidopa] belongs below 5%; to `O=C(O)COCCN1CCN(C(c2ccccc2)c2ccc(Cl)cc2)CC1` (stereo not drawn) [Cetirizine 2HCl], below 5%.
In the case of `CN(C)CCCN1c2ccccc2Sc2ccc(Cl)cc21` [Chlorpromazine HCl] it was below 5%; in that of `CC1(C)C[C@@H]1C(=O)N/C(=C\CCCCSC[C@H](N)C(=O)O)C(=O)O` [Cilastatin], below 5%; in that of `COCCOC(=O)C1=C(C)NC(C)=C(C(=O)OC/C=C/c2ccccc2)C1c1cccc([N+](=O)[O-])c1` (stereo not drawn) [Cilnidipine], below 5%.
Regarding `CN(C(=O)CCCOc1ccc2[nH]c(=O)ccc2c1)C1CCCCC1` [Cilostamide], the inhibition at 50 µM was below 5%.
In the case of `CC(C)NCC(O)c1ccc(N)c(C#N)c1` (stereo not drawn) [Cimaterol] it was below 5%; in that of `CN/C(=N\CCSCc1nc[nH]c1C)NC#N` [Cimetidine], below 5%; in that of `CC[C@H]1OC(=O)[C@H](C)[C@@H](O[C@H]2C[C@@](C)(OC)[C@@H](O)[C@H](C)O2)[C@H](C)[C@@H](O[C@@H]2O[C@H](C)C[C@H](N(C)C)[C@H]2O)[C@](C)(OC)C[C@@H](C)C(=O)[C@H](C)[C@@H](O)[C@]1(C)O` [Clarithromycin], below 5%.
As for `CC(C)(C)NCC(O)c1cc(Cl)c(N)c(Cl)c1` (stereo not drawn) [Clenbuterol], the inhibition at 50 µM is below 5%.
In the case of `CC(C)(C)C(=O)C(Oc1ccc(Cl)cc1)n1ccnc1` (stereo not drawn) [Climbazole] it was below 5%; in that of `NC1CCN(c2c(F)cc3c(=O)c(C(=O)O)cn(C4CC4)c3c2Cl)C1` (stereo not drawn) [Clinafloxacin HCl], below 5%.
Consider `CCC[C@@H]1C[C@@H](C(=O)N[C@@H]([C@H]2O[C@H](SC)[C@H](O)[C@@H](O)[C@H]2O)[C@H](C)Cl)N(C)C1` [Clindamycin HCl], for which the inhibition at 50 µM is below 5%.
To `CCCCCCCCCCCCCCCC(=O)O[C@@H]1[C@@H](O)[C@@H](O)[C@@H]([C@H](NC(=O)[C@@H]2C[C@@H](CCC)CN2C)[C@H](C)Cl)O[C@@H]1SC` [Clindamycin palmitate] belongs below 5%; to `CCC(=O)O[C@]1(C(=O)CCl)[C@@H](C)C[C@H]2[C@@H]3CCC4=CC(=O)C=C[C@]4(C)[C@@]3(F)[C@@H](O)C[C@@]21C` [Clobetasol propionate], 42.3%.
To `O=P(O)(O)C(Cl)(Cl)P(=O)(O)O` [Clodronate disodium] belongs below 5%; to `CCN(CC)CCOc1ccc(C(=C(Cl)c2ccccc2)c2ccccc2)cc1` [Clomiphene citrate], below 5%.
In the case of `C[C@@H]1CCC[C@H](C)N1NC(=O)c1ccc(Cl)c(S(N)(=O)=O)c1` [Clopamide] it was below 5%.
`COC(=O)[C@H](c1ccccc1Cl)N1CCc2sccc2C1` [Clopidogrel sulfate]: the inhibition at 50 µM was below 5%.
To `C[C@H]1[C@H](C)CC[C@]2(C(=O)O)CC[C@]3(C)C(=CC[C@@H]4[C@@]5(C)C[C@@H](O)[C@H](O)C(C)(C)[C@@H]5CC[C@]43C)[C@H]12` [Corosolic acid] belongs 43.2%.
